Patent US20260007621A1, “Pharmaceutical Combinations for Treatment” (priority 2022, published 2026)
“Also recorded” adds a separate entry of the source.

How the values were obtained:
[1] = test system: therapeutic relief of cough, cold and allergy symptoms; experiment: Inventor's findings on relief from GFN or antihistamines combined with IBF+APAP (and PE); no method given; type: in vivo, human; conditions: for therapeutic relief expressed as GFN amount: 'it is suggested'
Procedure: A normal 4 hourly dosage of DM and GFN is 20 mg and 400 mg respectively.

[2] = 6.25 mg PE administered with 500 mg APAP; cited from earlier work
[3] = in vivo; cited from earlier work
[4] = test system: recurring coughs, sneezing, headache, runny nose, pain, cold, fever, sore throat, sinus pressure; experiment: Clinical study: one subject rates relief from new pharmaceutical combinations against previous medication; type: in vivo, human; conditions: 2.5 mg cetirizine, 5 mg bilastine, 2.5 mg loratadine or 30 mg fexofenadine, each dose after 3 hours; versus 10, 20, 10 or 120 mg once
Procedure: The subject had recurring coughs, sneezing, headache, runny nose, pain, cold, fever, sore throat, sinus pressure etc. They took medication including DM+GFN combination as well as antihistamines to cure it, namely: • a. Mucinex Expectorant Tablets (600 mg GFN/dose): 1 dose per 12 hours; • b. […] Labixten (20 mg Bilastine/dose): 1 dose per 24 hours. […] On each recurrence of cough and other symptoms a new pharmaceutical combination was given. The subject would then provide feedback on the improvement of their symptoms and rate the performance of the pharmaceutical composition in comparison to their previous medication experience.

SMILES: COc1ccccc1OCC(O)CO (stereo not shown) [GFN, guaifenesin]
- therapeutic relief expressed as GFN amount ([1]; 100 mg GFN taken with 175-200 mg IBF and 275-575 mg APAP): 143 mg GFN
- therapeutic relief expressed as GFN amount ([1]; 200 mg GFN taken with 175-200 mg IBF and 275-575 mg APAP): 286 mg GFN
- increase in effectiveness of GFN when combined with IBF+APAP ([1]; in vivo): about 45%
- GFN dose that, combined with IBF+APAP, gives the relief of a normal 4 hourly dosage of 20 mg DM and 400 mg GFN ([1]; without DM): 280 mg

SMILES: CNC[C@H](O)c1cccc(O)c1 [PE, Phenylephrine]
- PE dosage of similar effect [2]: ~10 mg
- effectiveness compared with PSE [3]: not as effective as PSE

SMILES: CCOCCn1c(C2CCN(CCc3ccc(C(C)(C)C(=O)O)cc3)CC2)nc2ccccc21 [bilastine]
- quarter dose administered 4 times daily versus normal full 24-hour dose of the same ingredient at once [4]: better effect; also recorded: performed therapeutically better

SMILES: O=C(O)COCCN1CCN(C(c2ccccc2)c2ccc(Cl)cc2)CC1 (stereo not shown) [cetirizine]
- quarter dose administered 4 times daily versus normal full 24-hour dose of the same ingredient at once [4]: better effect; also recorded: performed therapeutically better

SMILES: CC(C)(C(=O)O)c1ccc(C(O)CCCN2CCC(C(O)(c3ccccc3)c3ccccc3)CC2)cc1 (stereo not shown) [fexofenadine]
- quarter dose administered 4 times daily versus normal full 24-hour dose of the same ingredient at once [4]: better effect; also recorded: performed therapeutically better

SMILES: CCOC(=O)N1CCC(=C2c3ccc(Cl)cc3CCc3cccnc32)CC1 [loratadine]
- quarter dose administered 4 times daily versus normal full 24-hour dose of the same ingredient at once [4]: better effect; also recorded: performed therapeutically better
